Source: PMC4222410, “Gold(I)-catalysed synthesis of a furan analogue of thiamine pyrophosphate” (Beilstein Journal of Organic Chemistry, 2014)

Biological target: T1, pyruvate decarboxylase (ZmPDC) (Zymomonas mobilis, UniProt P06672)
T1 construct: gene pdc; N-terminal His6-tag, pET28a, overexpressed in E. coli; tetramer (dimer of dimers)
Assay: coupled PDC/ADH assay (NADH, […] nm); time-course inactivation of apo-PDC and equilibrium competition with ThDP
Assay type: biochemical

T1 sequence (P06672 whole entry): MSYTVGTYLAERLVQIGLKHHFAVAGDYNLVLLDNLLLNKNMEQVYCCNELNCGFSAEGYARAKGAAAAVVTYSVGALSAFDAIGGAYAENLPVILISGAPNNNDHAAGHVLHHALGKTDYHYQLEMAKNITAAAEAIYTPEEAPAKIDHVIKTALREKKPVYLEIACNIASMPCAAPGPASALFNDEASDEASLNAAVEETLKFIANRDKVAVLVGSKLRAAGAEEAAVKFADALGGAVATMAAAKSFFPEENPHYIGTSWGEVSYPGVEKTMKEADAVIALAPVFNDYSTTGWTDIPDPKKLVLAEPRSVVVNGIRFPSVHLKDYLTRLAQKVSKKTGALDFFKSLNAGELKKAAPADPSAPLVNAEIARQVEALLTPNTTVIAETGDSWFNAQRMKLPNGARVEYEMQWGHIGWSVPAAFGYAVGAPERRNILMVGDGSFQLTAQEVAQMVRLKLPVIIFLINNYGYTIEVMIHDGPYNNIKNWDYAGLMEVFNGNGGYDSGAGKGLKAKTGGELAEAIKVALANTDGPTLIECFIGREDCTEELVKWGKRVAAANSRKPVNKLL

## Cc1ncc(Cc2coc(CCOP(=O)(O)OP(=O)(O)O)c2)c(N)n1 [compound 17, furan analogue of ThDP]
  Ki: 0.0325 nM
